Article PMC9598656, “In Vitro Activity of Robenidine Analogues NCL259 and NCL265 against Gram-Negative Pathogens” (Antibiotics, 2022)
Peptide text beside a SMILES is read from it. * marks the point of attachment. βNA = c1ccc2cc(N*)ccc2c1

What was measured:
K. oxytoca 13GNB–582 [1] = experiment: Checkerboard assay with PAβN; assay type: cell-based; conditions: for concentration at the marked interaction: resazurin
Experimental: (§1) MICs of NCL259 or NCL265 in the presence of the efflux pump inhibitor, PAβN were determined using a checkerboard assay. […] Briefly, a two-fold serial dilution of each antimicrobial solution was prepared in its appropriate solvent (e.g., DMSO for robenidine analogues and Milli-Q water for PAβN), and 1 μL of each dilution was added from wells 12 to 3 (12.8–0.25 μg/mL for robenidine analogues, and 32–2 μg/mL for PAβN). Thereafter, 89 μL of LB broth was added to each well followed by the addition of 10 μL of bacterial suspension (1–5 × 10^6 CFU/mL) to each well. In this manner, the final concentration of DMSO in each well was 1%. The plate was subsequently incubated at 37 °C for 24 h. The resazurin assay was used for assessment of drug susceptibility of NCL259 and NCL265 (Supplementary Table S1–S6). The same method was also used to test the MICs of NCL259 or NCL265 in the presence of PMB against a range of Gram-negative reference strains (E. coli ATCC 25922, E. coli ATCC 10763, P. aeruginosa PAO1, P. aeruginosa ATCC 27853, A. baumannii ATCC 12457, A. baumannii ATCC 19606, K. pneumoniae ATCC 4352 and K. pneumoniae ATCC 33495). Stock solutions were prepared prior to use (25.6–0.25 mg/mL for robenidine analogues; 12.8–0.25 mg/mL for PMB). The interaction of two antibiotics was calculated as the fractional inhibitory concentration index (FICI) using the following formula:(1) FICI=MICA in combination/MICA alone+MICB in combination/MICB alone where A is NCL259 or NCL265 and B is PAβN or PMB. According to FICI calculations, the interaction between two compounds were interpreted as follows: synergistic (FICI ≤ 0.5); additive or partially synergistic (0.5 < FICI ≤ 1); indifferent (1 < FICI ≤ 4); and antagonistic (FICI > 4), as described previously. The dose reduction index (DRI) was used to describe the difference between the effective doses of NCL259 or NCL265 in combination with PMB or PAβN in comparison to their individual doses, using the following formula:(2) DRI=MICA alone/MICA in combination
(§2) Evaluation of DRI is important clinically because it can allow the dose of a potentially toxic drug to be lowered in combination with another compound without reducing the drug’s efficacy. A DRI higher than 1 is viewed as beneficial.

K. pneumoniae 13GNB–429 [2] = experiment: MIC, broth micro-dilution; assay type: cell-based; conditions: Klebsiella pneumoniae, read-out: MIC, Single Drug
Experimental: (§3) MICs for NCL259 and NCL265 (serial two-fold dilutions commencing at 256 µg/mL) were determined (in duplicate) in round bottom 96–well microtitre trays (Sarstedt 82.1582.001), using the broth micro-dilution method recommended by the Clinical and Laboratory Standards Institute (CLSI). We have shown previously that robenidine can chelate calcium ions from cation-adjusted Mueller-Hinton broth, which causes the loss of activity of robenidine. Therefore, LB broth was used in this study. Additionally, considering the low solubility of robenidine and its analogues in aqueous solutions, two-fold serial dilutions of stock solutions of these compounds were prepared in 100% DMSO [21]. The MIC for ampicillin against each isolate was determined for each test to serve as an internal quality control. The MICs of isolates were determined by visual reading and using an EnSpire Multimode Plate Reader 2300 at A600nm.
as §1

K. pneumoniae 13GNB–550 [3] = experiment: MIC, broth micro-dilution; assay type: cell-based; conditions: Klebsiella pneumoniae, read-out: MIC, Single Drug
Experimental: as §3, §1

K. oxytoca 13GNB–582 [4] = experiment: MIC, broth micro-dilution; assay type: cell-based; conditions: Klebsiella oxytoca, read-out: MIC, Single Drug
Experimental: as §3, §1

K. pneumoniae 13GNB–429 [5] = experiment: Checkerboard assay with PAβN; assay type: cell-based, Klebsiella pneumoniae; conditions: for concentration at the marked interaction: resazurin
Experimental: as §1, §2

K. pneumoniae 13GNB–550 [6] = experiment: Checkerboard assay with PAβN; assay type: cell-based, Klebsiella pneumoniae; conditions: for concentration at the marked interaction: resazurin
Experimental: as §1, §2

NC(N)=NCCC[C@H](NC(=O)[C@@H](N)Cc1ccccc1)C(=O)Nc1ccc2ccccc2c1 [PAβN, phenylalanine-arginine-beta-naphthylamide, reference compound] (H-Phe-Arg-βNA)
DRI PAβN:NCL259 (K. oxytoca 13GNB–582 [1]; K. oxytoca 13GNB–582): 4
DRI PAβN:NCL265 (K. oxytoca 13GNB–582 [1]; K. oxytoca 13GNB–582): 2
MIC, Combination (K. oxytoca 13GNB–582 [1]; K. oxytoca 13GNB–582, PAβN + NCL259): 16 µg/mL
MIC, Combination (K. oxytoca 13GNB–582 [1]; K. oxytoca 13GNB–582, PAβN + NCL265): 32 µg/mL
concentration at the marked interaction (K. oxytoca 13GNB–582 [1]; Table S3, NCL259 + PAβN, replicate 1): 8 µg/mL
concentration at the marked interaction (K. oxytoca 13GNB–582 [1]; Table S3, NCL259 + PAβN, replicate 2): 8 µg/mL
concentration at the marked interaction (K. oxytoca 13GNB–582 [1]; Table S6, NCL265 + PAβN, replicate 1): 8 µg/mL
concentration at the marked interaction (K. oxytoca 13GNB–582 [1]; Table S6, NCL265 + PAβN, replicate 2): 8 µg/mL
MIC (K. pneumoniae 13GNB–429 [2]): > 32 µg/mL
MIC (K. pneumoniae 13GNB–550 [3]): > 32 µg/mL
MIC (K. oxytoca 13GNB–582 [4]): > 32 µg/mL
DRI PAβN:NCL259 (K. pneumoniae 13GNB–429 [5]; K. pneumoniae 13GNB–429): 4
DRI PAβN:NCL265 (K. pneumoniae 13GNB–429 [5]; K. pneumoniae 13GNB–429): 2
MIC, Combination (K. pneumoniae 13GNB–429 [5]; K. pneumoniae 13GNB–429, PAβN + NCL259): 16 µg/mL
MIC, Combination (K. pneumoniae 13GNB–429 [5]; K. pneumoniae 13GNB–429, PAβN + NCL265): 32 µg/mL
concentration at the marked interaction (K. pneumoniae 13GNB–429 [5]; Table S1, NCL259 + PAβN, replicate 1): 8 µg/mL
concentration at the marked interaction (K. pneumoniae 13GNB–429 [5]; Table S1, NCL259 + PAβN, replicate 2): 8 µg/mL
concentration at the marked interaction (K. pneumoniae 13GNB–429 [5]; Table S4, NCL265 + PAβN, replicate 1): 8 µg/mL
concentration at the marked interaction (K. pneumoniae 13GNB–429 [5]; Table S4, NCL265 + PAβN, replicate 2): 4 µg/mL
DRI PAβN:NCL259 (K. pneumoniae 13GNB–550 [6]; K. pneumoniae 13GNB–550): 2
DRI PAβN:NCL265 (K. pneumoniae 13GNB–550 [6]; K. pneumoniae 13GNB–550): 2
MIC, Combination (K. pneumoniae 13GNB–550 [6]; K. pneumoniae 13GNB–550, PAβN + NCL259): 32 µg/mL
MIC, Combination (K. pneumoniae 13GNB–550 [6]; K. pneumoniae 13GNB–550, PAβN + NCL265): 32 µg/mL
concentration at the marked interaction (K. pneumoniae 13GNB–550 [6]; Table S2, NCL259 + PAβN, replicate 1): 16 µg/mL
concentration at the marked interaction (K. pneumoniae 13GNB–550 [6]; Table S2, NCL259 + PAβN, replicate 2): 8 µg/mL
concentration at the marked interaction (K. pneumoniae 13GNB–550 [6]; Table S5, NCL265 + PAβN, replicate 1): 8 µg/mL
concentration at the marked interaction (K. pneumoniae 13GNB–550 [6]; Table S5, NCL265 + PAβN, replicate 2): 8 µg/mL
